As usually defined, the IC50 is the concentration needed to halve the response being measured. Broadly, the EC50 is the concentration needed to bring the measured effect to its halfway point.

The source of these data is publication PMC4976923, “Potent Allosteric Dengue Virus NS5 Polymerase Inhibitors: Mechanism of Action and Resistance Profiling” (PLoS Pathogens, 2016).

The target in assay [1] is T1, DENV4 FL NS5 (Dengue virus type 4, UniProt P09866).
T1 construct: 100 nM DENV FL NS5 protein was added; made in house
T1 sequence (P09866 2488-3387): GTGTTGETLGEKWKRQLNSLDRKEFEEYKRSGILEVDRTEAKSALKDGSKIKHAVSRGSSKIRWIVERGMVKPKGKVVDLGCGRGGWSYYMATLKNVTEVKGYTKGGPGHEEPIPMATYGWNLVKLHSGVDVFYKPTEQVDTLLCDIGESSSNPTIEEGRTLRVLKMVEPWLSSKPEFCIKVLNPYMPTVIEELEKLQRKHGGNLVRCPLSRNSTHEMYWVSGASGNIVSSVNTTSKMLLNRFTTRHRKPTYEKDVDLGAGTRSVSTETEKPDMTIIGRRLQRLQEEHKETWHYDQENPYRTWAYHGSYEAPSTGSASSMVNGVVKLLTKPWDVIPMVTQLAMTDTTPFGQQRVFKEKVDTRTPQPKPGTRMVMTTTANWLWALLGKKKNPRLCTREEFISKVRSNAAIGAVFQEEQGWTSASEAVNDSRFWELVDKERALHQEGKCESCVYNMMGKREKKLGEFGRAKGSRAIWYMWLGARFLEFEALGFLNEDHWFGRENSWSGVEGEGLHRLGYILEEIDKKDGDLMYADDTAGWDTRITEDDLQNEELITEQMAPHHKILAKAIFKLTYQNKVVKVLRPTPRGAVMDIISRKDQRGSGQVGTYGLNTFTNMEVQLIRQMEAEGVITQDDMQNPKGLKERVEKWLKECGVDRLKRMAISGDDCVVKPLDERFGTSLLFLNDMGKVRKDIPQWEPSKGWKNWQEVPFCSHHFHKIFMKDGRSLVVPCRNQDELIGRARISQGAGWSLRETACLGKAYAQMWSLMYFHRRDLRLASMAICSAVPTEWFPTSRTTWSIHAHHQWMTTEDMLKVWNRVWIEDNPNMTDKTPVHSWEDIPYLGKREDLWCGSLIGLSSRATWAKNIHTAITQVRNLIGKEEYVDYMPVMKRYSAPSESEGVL
As to the kind of experiment: biochemical. The note with it: Enzyme + compound 20 min, then ssRNA and nucleotides, 2 hr; averaged from ≥3 experiments; read-out: DENV FL NS5 de novo initiation FAPA, IC50, DENV4. The method, then:
(§1) DENV1-4 FL NS5 dnI assays were performed as described previously. Briefly, compounds from 0–20 or -100 μM concentrations are two-fold serially diluted into 384-well black opaque plates (Corning Costar), after which 100 nM DENV FL NS5 protein was added and the plates incubated at RT for 20 min. RNA and ATTO-CTP, ATP, GTP and UTP were then added and the plates incubated for another 120 min. […] For order-of-addition experiments, DENV4 FL NS5 was incubated for one hour at RT with RNA, ATP, and GTP or RNA, ATP, GTP and ATTO-CTP, followed by exposure to serially diluted compounds for 20 min at RT. The missing components (ATTO-CTP and UTP or UTP alone) were added and the reactions continued for 120 min after which STOP buffer was added as before. All datapoints were performed in duplicate wells. Each compound was tested at least twice.
(§2) 2 Co mpound testing with DENV dn I FAPA assays. Final dn I assa y reaction mixtures
(§3) 3 contained 100 nM DENV 5 ´UTR-L-3´UTR IVT RNA, 20 µ M ATP, 20 µM GTP, 20 µM
(§4) 4 UTP, 5 µM ATTO -CTP, and 100 nM of DENV FL NS5 protein in 15 µl in assa y buffer
(§5) 5 comprising 50 mM Tris/ HCl, pH 7.5, 10 mM KCl, 1 mM MgCl2, 0.3 mM MnCl2 (DENV2
(§6) 6 and 4) or 1 mM MnCl 2 (DENV1 and 3), 0.001% Triton- X-100 and 10 µ M cystein e [ 1] . To
(§7) 7 perform dose-respons e inhibition measurements, compounds from 0- 20 or - 100 µM
(§8) 8 concentr ations are two -fold seriall y diluted into 384-well black opaqu e plat es (Corning
(§9) 9 Costar), after which 100 nM DENV FL NS5 protein was added into resp ect ive wells. The
(§10) 10 plates wer e sealed, b riefl y shak en and centrif uged at 1500 rpm for 30 sec and incubated at RT
(§11) 11 for 15 min. Thereafter,RNA and ATTO -CTP, ATP, GTP and UTP were added to the wells to
(§12) 12 start the reactions. The pl ates wer e re-seal ed, shaken and centrifuged as before, followed b y
(§13) 13 incubation RT for 120 min.
(§14) 15 intestinal phosphatase (CIP), re- incubation at RT for 60 min and read on a Tecan Safire II
(§15) 16 microplate reader. For o r der-of-addition experiments, DENV4 FL NS5 was incubated for one
(§16) 17 hour at RT with RNA, ATP, and GTP or RNA, ATP, GTP and ATTO-CTP, followed by
(§17) 18 exposure to seriall y dilut ed compounds for 20 mi n at RT. The missing components (ATTO-
(§18) 19 CTP and UTP or UTP alone) were added and the reactions continued for 120 min after which
(§19) 20 STOP buffer was added as before. All datapoints were performed in duplicate wells. Each
21 compound was tested at l east twice. […]

The target of assay [2] is T2, DENV2 FL NS5 (Dengue virus type 2, UniProt P14340).
T2 construct: made in house
The experiment in a line: DENV2 FL NS5 de novo initiation FAPA assay. It counts as biochemical. Conditions: one experiment; read-out: DENV FL NS5 de novo initiation FAPA, IC50, DENV2. The method, then:
as §1, §2, §3, §4, §5, §6, §7, §8, §9, §10, §11, §12, §13, §14, §15, §16, §17, §18, §19
21 compound was tested at l east twice.
23 Compound testing in DENV1-4 infected cells by high content imaging. Approximatel y 7
24 × 10^3 A549 cells per well were s eeded into 384-well plates in Ham’s F-12K medium

For assay [3], the system named is DENV3 strain MY05-34640. As to the kind of experiment: DENV3 infected A549 cells, high content imaging (HCI). The class given is cell-based. The note with it: 48 hr. The method, then: as §2, §3, §4, §5, §6, §7, §8, §9, §10, §11, §12
(§20) 13 incubation RT for 120 min. […]
as §14
(§21) 16 microplate reader. […]
(§22) 8 DENV envelope protein ) and DRAQ5 (for nucl ear DNA) . Quantifications of DENV
(§23) 9 envelope protein were determined using the Opera high content imaging s ystem and anal ysis […]
(§24) 17 µM concentrations. At 48 hr of post-incubation, r enilla luciferas e activities were measured […]

Assay [4] has as its system DENV4, strain MY01-22713. The experiment in a line: DENV4 infected A549 cells, high content imaging (HCI). It counts as cell-based. The note with it: 48 hr. The method, then:
as §2, §3, §4, §5, §6, §7, §8, §9, §10, §11, §12, §20, §14, §21, §22, §23, §24

Assay [5] has as its target T3, DENV1 FL NS5 (Dengue virus type 1, UniProt P17763).
T3 construct: 100 nM DENV FL NS5 protein was added; made in house
Conditions: read-out: DENV FL NS5 de novo initiation FAPA, IC50, DENV1; cited from earlier work.

Assay [6] addresses T4, DENV3 FL NS5 (Dengue virus type 3, UniProt Q6YMS4).
T4 construct: 100 nM DENV FL NS5 protein was added; made in house
The note with it: read-out: DENV FL NS5 de novo initiation FAPA, IC50, DENV3; cited from earlier work.

The test system of assay [7] is clinical isolates of DENV1-4. Conditions: across four serotypes; cited from earlier work.
The target of assay [8] is T1, DENV4 FL NS5. It counts as biochemical.

T4 sequence (Q6YMS4 2491-3390): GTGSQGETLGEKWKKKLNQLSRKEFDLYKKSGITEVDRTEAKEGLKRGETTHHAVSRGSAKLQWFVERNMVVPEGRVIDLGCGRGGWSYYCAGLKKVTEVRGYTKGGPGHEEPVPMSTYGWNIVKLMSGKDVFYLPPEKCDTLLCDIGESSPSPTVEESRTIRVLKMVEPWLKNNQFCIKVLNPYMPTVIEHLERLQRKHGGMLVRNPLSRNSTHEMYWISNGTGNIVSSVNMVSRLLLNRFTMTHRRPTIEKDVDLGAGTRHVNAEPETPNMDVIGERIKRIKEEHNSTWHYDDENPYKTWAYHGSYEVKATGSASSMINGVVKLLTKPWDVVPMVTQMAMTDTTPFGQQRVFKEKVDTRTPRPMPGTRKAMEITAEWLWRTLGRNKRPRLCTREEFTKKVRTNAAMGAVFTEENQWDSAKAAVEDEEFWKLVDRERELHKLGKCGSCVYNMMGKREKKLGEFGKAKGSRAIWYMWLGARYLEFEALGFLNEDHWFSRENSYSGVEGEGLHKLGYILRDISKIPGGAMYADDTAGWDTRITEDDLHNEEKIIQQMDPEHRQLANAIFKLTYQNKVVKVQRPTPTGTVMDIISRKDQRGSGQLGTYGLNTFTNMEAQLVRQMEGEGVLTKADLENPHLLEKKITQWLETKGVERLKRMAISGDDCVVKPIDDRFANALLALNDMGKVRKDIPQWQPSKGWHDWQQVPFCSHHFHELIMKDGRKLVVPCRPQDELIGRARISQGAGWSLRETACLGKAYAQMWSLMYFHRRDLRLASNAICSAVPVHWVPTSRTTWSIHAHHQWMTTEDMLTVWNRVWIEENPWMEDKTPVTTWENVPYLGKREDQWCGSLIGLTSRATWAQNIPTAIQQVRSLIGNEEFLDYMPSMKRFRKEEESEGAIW
T3 sequence (P17763 2494-3392): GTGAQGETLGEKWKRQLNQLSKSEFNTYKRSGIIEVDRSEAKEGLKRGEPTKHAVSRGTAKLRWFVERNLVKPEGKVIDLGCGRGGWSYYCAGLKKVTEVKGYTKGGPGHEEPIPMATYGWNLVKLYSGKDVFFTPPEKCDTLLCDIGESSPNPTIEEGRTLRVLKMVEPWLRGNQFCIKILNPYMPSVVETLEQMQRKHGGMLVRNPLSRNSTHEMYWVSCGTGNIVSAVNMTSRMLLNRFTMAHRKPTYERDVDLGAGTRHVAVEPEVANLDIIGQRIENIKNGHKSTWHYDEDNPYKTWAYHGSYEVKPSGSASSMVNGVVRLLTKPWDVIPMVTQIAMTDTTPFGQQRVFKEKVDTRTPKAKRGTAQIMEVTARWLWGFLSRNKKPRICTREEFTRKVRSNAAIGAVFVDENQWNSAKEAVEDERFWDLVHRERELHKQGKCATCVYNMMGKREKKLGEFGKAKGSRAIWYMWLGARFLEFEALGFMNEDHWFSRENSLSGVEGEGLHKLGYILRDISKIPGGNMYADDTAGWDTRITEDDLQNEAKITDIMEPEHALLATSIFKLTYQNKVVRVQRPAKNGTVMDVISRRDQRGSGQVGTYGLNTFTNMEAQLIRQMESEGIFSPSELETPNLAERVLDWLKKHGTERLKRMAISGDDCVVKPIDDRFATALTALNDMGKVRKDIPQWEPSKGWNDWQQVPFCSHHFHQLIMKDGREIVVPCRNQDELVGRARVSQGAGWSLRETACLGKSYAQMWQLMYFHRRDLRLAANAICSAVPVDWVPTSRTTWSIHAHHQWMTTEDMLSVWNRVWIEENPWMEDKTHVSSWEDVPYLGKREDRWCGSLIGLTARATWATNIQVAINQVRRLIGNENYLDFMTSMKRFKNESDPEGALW

Consider `COc1cccc(S(=O)(=O)NC(=O)c2cc(-c3ccc(C#CCO)s3)c(OC)cc2C)c1` [Compound 26i], for which the IC50 in assay [1] is 109 ± 61 nM; in assay [2], 86 nM. The half-maximal effective concentration (EC50) in assay [3] was 16800 nM; in assay [4] it was 20400 nM.

In the case of `COc1cccc(S(=O)(=O)NC(=O)c2cc(-c3ccc(C#CCO)s3)c(OC)cc2OC)c1` [Compound 27], the half-inhibitory concentration (IC50) was 68 nM in assay [5] and 48 nM in assay [6]. For the same molecule, the EC50 in assay [7] is around 2000 nM.

In the case of `COc1cc(OC)c(-c2ccc(C#CCO)s2)cc1C(=O)NS(=O)(=O)c1cccc2cccnc12` [Compound 29], the “mode of inhibition with respect to viral RNA substrate” value in assay [8] (Lineweaver-Burk plots, 0–500 nM RNA) was “uncompetitive”. In assay [8] (Lineweaver-Burk plots, 0–50 μM GTP), the “mode of inhibition with respect to GTP” value is reported as “uncompetitive inhibition”. Also, in assay [8] (high GTP concentrations), the “mode of inhibition at high GTP concentrations” value was “non-competitive mode of inhibition”.
